{
  "source": "patent US20250025443A1",
  "about": "“COMPOUNDS AND METHODS FOR TREATING CORONA VIRUSES” (CLEAR CREEK BIO, INC., priority 2021, published 2025)",
  "data": [
    {"biological_target": "SARS-CoV-2 Papain-Like Protease (PLpro) (Severe acute respiratory syndrome coronavirus 2 (2019-nCoV) (SARS-CoV-2), UniProt P0DTD1)", "assay": "biochemical", "settings": "PLpro enzymatic fluorescence assay; class symbols; read-out: PLpro IC50", "units": {"IC50": "nM"}, "values": [
      {"smiles": "COc1cc(C2(NC(=O)c3cc(OC[C@@H]4CCN4C)ccc3C)CC2)c2ccc(Cl)nc2c1", "note": "[Compound 617, (S)-N-(1-(2-Chloro-7-methoxyquinolin-5-yl)cyclopropyl)-2-methyl-5-((1-methylazetidin-2-yl)methoxy)benzamide]", "IC50": "< 100"},
      {"smiles": "Cc1ccc(OC[C@@H]2CCN2C)cc1C(=O)NC1(c2cc(NCC(F)(F)F)cc3ncccc23)CC1", "note": "[Compound 759, (S)-2-Methyl-5-((1-methylazetidin-2-yl)methoxy)-N-(1-(7-((2,2,2-trifluoroethyl)amino)quinolin-5-yl)cyclopropyl)benzamide]", "IC50": "< 100"},
      {"smiles": "Cc1ccc([N+](=O)[O-])cc1CNC(c1cccc2ccccc12)C1CCOC1", "note": "(stereo not shown) [Compound 123]", "IC50": "> 5000"},
      {"smiles": "Cc1ncc(-c2cc(C3(NC(=O)c4cc(OC[C@@H]5CCN5)ccc4C)CC3)c3cccnc3c2)o1", "note": "[Compound 698, (S)-5-(Azetidin-2-ylmethoxy)-2-methyl-N-(1-(7-(2-methyloxazol-5-yl)quinolin-5-yl)cyclopropyl)benzamide]", "IC50": "< 100"},
      {"smiles": "Cc1ccc(OCC(C)N)cc1C(=O)NC1(c2cccc3cnccc23)CC1", "note": "(stereo not shown) [Compound 446, 5-(2-Aminopropoxy)-N-(1-(isoquinolin-5-yl)cyclopropyl)-2-methylbenzamide]", "IC50": "< 100"},
      {"smiles": "Cc1ccc(OC[C@@H]2CCN2)cc1C(=O)NC1(c2cc(-c3ccoc3)cc3ncccc23)CC1", "note": "[Compound 645, (S)-5-(Azetidin-2-ylmethoxy)-N-(1-(7-(furan-3-yl)quinolin-5-yl)cyclopropyl)-2-methylbenzamide]", "IC50": "< 100"},
      {"smiles": "COc1cc(C2(NC(=O)c3cc(OC[C@@]45CCCN4C[C@H](F)C5)ccc3C)CC2)c2cccnc2c1", "note": "[Compound 596, 5-(((2R,7aS)-2-Fluorohexahydro-1H-pyrrolizin-7a-yl)methoxy)-N-(1-(7-methoxyquinolin-5-yl)cyclopropyl)-2-methylbenzamide]", "IC50": "< 100"},
      {"smiles": "Cc1ccc(OC[C@@H]2CCN2C)cc1C(=O)NC1(c2cc(-c3ncn4ccccc34)cc3ncccc23)CC1", "note": "[Compound 736, (S)—N-(1-(7-(Imidazo[1,5-a]pyridin-1-yl)quinolin-5-yl)cyclopropyl)-2-methyl-5-((1-methylazetidin-2-yl)methoxy)benzamide]", "IC50": "< 100"},
      {"smiles": "COc1cc(C2(NC(=O)c3cc(OC[C@@H]4C[C@@H](F)CN4C)ccc3C)CC2)c2cccnc2c1", "note": "[Compound 532, 5-(((2S,4R)-4-Fluoro-1-methylpyrrolidin-2-yl)methoxy)-N-(1-(7-methoxyquinolin-5-yl)cyclopropyl)-2-methylbenzamide]", "IC50": "< 100"},
      {"smiles": "CNCCOc1ccc(C)c(C(=O)NC2(c3cc(-c4ccn(C)n4)cc4ncccc34)CC2)c1", "note": "[Compound 647, 2-Methyl-N-(1-(7-(1-methyl-1H-pyrazol-3-yl)quinolin-5-yl)cyclopropyl)-5-(2-(methylamino)ethoxy)benzamide]", "IC50": "< 100"},
      {"smiles": "Cc1ccc(OC[C@@H]2CCN2)cc1C(=O)NC1(c2cc(-c3cccnc3)cc3ncccc23)CC1", "note": "[Compound 637, (S)-5-(Azetidin-2-ylmethoxy)-2-methyl-N-(1-(7-(pyridin-3-yl)quinolin-5-yl)cyclopropyl)benzamide]", "IC50": "< 100"}
    ]},
    {"biological_target": "SARS-CoV-2 Papain-Like Protease (PLpro) (Severe acute respiratory syndrome coronavirus 2 (2019-nCoV) (SARS-CoV-2), UniProt P0DTD1)", "assay": "biochemical", "settings": "SARS-CoV-2 PLpro enzymatic fluorescence assay; read-out: PLpro IC50", "units": {"IC50": "nM"}, "values": [
      {"smiles": "CNCc1nc2cc(C)c(C(=O)NC3(c4cccc5ccccc45)CC3)cc2o1", "note": "[Compound 426, 5-Methyl-2-((methylamino)methyl)-N-(1-(naphthalen-1-yl)cyclopropyl)benzo[d]oxazole-6-carboxamide]", "IC50": "100 to 1000"},
      {"smiles": "Cc1cc2cc(C(N)=O)[nH]c2cc1C(=O)NC1(c2cccc3ccccc23)CC1", "note": "[Compound 205]", "IC50": "100 to 1000"},
      {"smiles": "Cc1ccc(N2CCN(C)CC2)cc1C(=O)NC1(c2cccc3ccccc23)CC1", "note": "[Compound 418, 2-Methyl-5-(4-methylpiperazin-1-yl)-N-(1-(naphthalen-1-yl)cyclopropyl)benzamide]", "IC50": "< 100"},
      {"smiles": "Cc1cccc(C2(NC(=O)c3cc(OCCN(C)C)ccc3C)CC2)c1", "note": "[Compound 255, 5-(2-(Dimethylamino)ethoxy)-2-methyl-N-(1-(m-tolyl)cyclopropyl)benzamide]", "IC50": "> 5000"},
      {"smiles": "Cc1ccc(OC[C@@H]2CCN2C)cc1C(=O)NC1(c2cccc3nc(N(C)C)ccc23)CC1", "note": "[Compound 548, (S)-N-(1-(2-(Dimethylamino)quinolin-5-yl)cyclopropyl)-2-methyl-5-((1-methylazetidin-2-yl)methoxy)benzamide]", "IC50": "< 100"},
      {"smiles": "CNCCOc1ccc(C)c(C(=O)NC2(c3cccc4cc(F)ccc34)CC2)c1", "note": "[Compound 377, N-(1-(6-Fluoronaphthalen-1-yl)cyclopropyl)-2-methyl-5-(2-(methylamino)ethoxy)benzamide]", "IC50": "< 100"},
      {"smiles": "Cc1ccc(OCC2CC(C)(C)N2)cc1C(=O)NC1(c2cccc3ccccc23)CC1", "note": "(stereo not shown) [Compound 534, 5-((4,4-Dimethylazetidin-2-yl)methoxy)-2-methyl-N-(1-(naphthalen-1-yl)cyclopropyl)benzamide]", "IC50": "< 100"},
      {"smiles": "Cc1ccc(OCCN(C)C)cc1C(=O)NC1(c2cccc(C3CCCC3)c2)CC1", "note": "[Compound 276, N-(1-(3-Cyclopentylphenyl)cyclopropyl)-5-(2-(dimethylamino)ethoxy)-2-methylbenzamide]", "IC50": "> 5000"},
      {"smiles": "Cc1ccc(OC[C@@H]2CCN2C)cc1C(=O)NC1(c2cccc3ccccc23)CC1", "note": "[Compound 310, (S)-2-Methyl-5-((1-methylazetidin-2-yl)methoxy)-N-(1-(naphthalen-1-yl)cyclopropyl)benzamide]", "IC50": "< 100"},
      {"smiles": "Cc1cc2ccn(CC3COC3)c2cc1C(=O)NC1(c2cccc3ccccc23)CC1", "note": "[Compound 295, 5-Methyl-N-(1-(naphthalen-1-yl)cyclopropyl)-1-(oxetan-3-ylmethyl)-1H-indole-6-carboxamide]", "IC50": "100 to 1000"},
      {"smiles": "COCC(NC(=O)c1cc(N)ccc1C)c1cccc2ccccc12", "note": "(stereo not shown) [Compound 118, 5-Amino-N-(2-methoxy-1-(naphthalen-1-yl)ethyl)-2-methylbenzamide]", "IC50": "> 5000"},
      {"smiles": "Cc1ccc(OCC2CCN2C)cc1C(=O)NC1(c2cc(-c3cccs3)cc3ccccc23)CC1", "note": "(stereo not shown) [Compound 468, 2-Methyl-5-((1-methylazetidin-2-yl)methoxy)-N-(1-(3-(thiophen-2-yl)naphthalen-1-yl)cyclopropyl)benzamide]", "IC50": "< 100"},
      {"smiles": "Cc1cc2c(cc1C(=O)NC1(c3cccc4ccccc34)CC1)NCCC2", "note": "[Compound 227, 6-Methyl-N-(1-(naphthalen-1-yl)cyclopropyl)-1,2,3,4-tetrahydroquinoline-7-carboxamide]", "IC50": "100 to 1000"},
      {"smiles": "C=Cc1cc(C2(NC(=O)c3cc(OC45CCCN(CCC4)C5)ccc3C)CC2)c2cccnc2c1", "note": "[Compound 749, 5-(1-Azabicyclo[3.3.1]nonan-5-yloxy)-2-methyl-N-(1-(7-vinylquinolin-5-yl)cyclopropyl)benzamide]", "IC50": "< 100"},
      {"smiles": "Cc1ccc(OCCN2CCC(F)(F)CC2)cc1C(=O)NC1(c2cccc3ccccc23)CC1", "note": "[Compound 284, 5-(2-(4,4-Difluoropiperidin-1-yl)ethoxy)-2-methyl-N-(1-(naphthalen-1-yl)cyclopropyl)benzamide]", "IC50": "100 to 1000"},
      {"smiles": "Cc1ccc(OCCN(C)C)cc1C(=O)NC1(c2cc(C#N)cc3ccccc23)CC1", "note": "[Compound 443, N-(1-(3-Cyanonaphthalen-1-yl)cyclopropyl)-5-(2-(dimethylamino)ethoxy)-2-methylbenzamide]", "IC50": "< 100"},
      {"smiles": "Cc1ccc(OC[C@@H]2CCN2C)cc1C(=O)NC1(c2cccc3ncccc23)CC1", "note": "[Compound 391, (S)-2-Methyl-5-((1-methylazetidin-2-yl)methoxy)-N-(1-(quinolin-5-yl)cyclopropyl)benzamide]", "IC50": "< 100"}
    ]}
  ]
}
